Assay results as given in patent publication US10077295B2, “Glycoproteins having lipid mobilizing properties and therapeutic uses thereof” (Aston University, priority 2010, dated 2018).

What was measured:
[1] = test system: adipocytes, BAT; assay: Expression of ZAG, HSL, UCP in adipose tissue/adipocytes of mice (5 day ZAG study); type: in vivo, mouse; settings: ERK inhibitor added with ZAG
Protocol: Western Blot Analysis. Freshly excised gastrocnemius muscles were washed in PBS and lysed in PHOSPHOSAFE™ Extraction Reagent for 5 min at room temperature followed by sonication at 4° C. The lysate was cleared by centrifugation at 18,000 g for 5 min at 4° C. and samples of cytosolic protein (5 μg) were resolved on 12% sodium dodecyl sulfate-polyacrylamide gel electrophoresis at 180V for approximately 1 h. This was followed by transference to 0.45 μm nitrocellulose membranes, which were then blocked with 5% Marvel in Tris-buffered saline, pH 7.5, at 4° C. overnight. Both primary and secondary antibodies were used at a dilution of 1:1000 except anti-myosin (1:250). Incubation was for 1 h at room temperature, and development was by ECL. Blots were scanned by a densitometer to quantify differences.
A 5 day study was performed where ZAG was administered at 35 μg per day i.v. on a daily basis for 5 days. At the end of the experiment tissues were removed and blotted, or functional assays were carried out with isolated adipocytes. […] When ep adipocytes were prepared and maintained in tissue culture (RPMI 1640+10% FCS) ZAG expression was maintained for a further 3 days, even though no ZAG was added to the culture medium (FIG. 6B). […] In fact, as discussed above, too much ZAG is more likely to lead to resistance rather than an increased response.

[2] = test system: rat epididymal adipocytes; assay: Lipolytic activity in rat adipocytes; type: cell-based; settings: rat epididymal adipocytes
Protocol: Lipolytic Activity in Rat Adipocytes—White adipocytes were prepared from finely minced epididymal adipose tissue of male Wistar rats (400 g) using collagenase digestion, as described (Beck S A, et al. Production of lipolytic and proteolytic factors by a murine tumor-producing cachexia in the host. Cancer Res 47:5919-5923, 1987). Lipolytic activity was determined by incubating 10^5-2×10^5 adipocytes for 2 h in 1 ml Krebs-Ringer bicarbonate buffer, pH 7.2, and the extent of lipolysis was determined by measuring the glycerol released (Wieland O. Glycerol UV method. Methods of Enzymatic Analysis, edited by Bergmeyer H U. Academic Press, London, pp 1404-1409, 1974). Spontaneous glycerol release was measured by incubating adipocytes alone. Lipolytic activity was expressed as μmol glycerol released/10^5 adipocytes/2 h.

[3] = target: T1, human β2-AR (Homo sapiens, UniProt P07550); assay: Cyclic AMP production in CHO-K1 cells transfected with β2-AR; type: cell-based; settings: CHO β2-AR, SR59230A 10 μM
T1 construct: host or cells: CHO-K1
T1 sequence (P07550 whole entry): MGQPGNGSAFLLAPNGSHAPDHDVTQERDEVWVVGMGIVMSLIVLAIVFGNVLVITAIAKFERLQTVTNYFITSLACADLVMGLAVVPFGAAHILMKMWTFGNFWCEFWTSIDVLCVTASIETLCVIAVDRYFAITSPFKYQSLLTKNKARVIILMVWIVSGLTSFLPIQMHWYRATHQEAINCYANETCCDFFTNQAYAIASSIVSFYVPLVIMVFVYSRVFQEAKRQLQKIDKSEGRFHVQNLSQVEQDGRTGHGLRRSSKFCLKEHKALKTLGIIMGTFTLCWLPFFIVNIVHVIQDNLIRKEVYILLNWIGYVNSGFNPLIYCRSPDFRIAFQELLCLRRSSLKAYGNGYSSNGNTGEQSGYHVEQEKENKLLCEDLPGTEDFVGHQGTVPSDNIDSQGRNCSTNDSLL
Protocol: (§1) Binding Studies and Cyclic AMP Determination. CHO-K1 cells transfected with the human β1- and β2-AR obtained from University of Nottingham, UK, while CHOK1 cells transfected with the β3-AR were obtained from Astra Zeneca, Macclesfield, Cheshire, UK. Gene expression was under the control of hygromycin, together with a β-gal reporter construct, selected for resistance to G418. They were maintained in DMEM supplemented with 2 mM glutamine, hygromycin B ([…]), G418 ([…]), and 10% FCS, under an atmosphere of 10% CO2 in air. To determine the effect of agonists on cyclic AMP production, cells were grown in 24-well plates containing 1 ml of nutrient medium.

[4] = target: T2, β3-AR (Homo sapiens, UniProt P13945); assay: Cyclic AMP production in CHO-K1 cells transfected with β3-AR; type: cell-based; design: host or cells: CHO-K1; settings: CHO β3-AR
T2 sequence (P13945 whole entry): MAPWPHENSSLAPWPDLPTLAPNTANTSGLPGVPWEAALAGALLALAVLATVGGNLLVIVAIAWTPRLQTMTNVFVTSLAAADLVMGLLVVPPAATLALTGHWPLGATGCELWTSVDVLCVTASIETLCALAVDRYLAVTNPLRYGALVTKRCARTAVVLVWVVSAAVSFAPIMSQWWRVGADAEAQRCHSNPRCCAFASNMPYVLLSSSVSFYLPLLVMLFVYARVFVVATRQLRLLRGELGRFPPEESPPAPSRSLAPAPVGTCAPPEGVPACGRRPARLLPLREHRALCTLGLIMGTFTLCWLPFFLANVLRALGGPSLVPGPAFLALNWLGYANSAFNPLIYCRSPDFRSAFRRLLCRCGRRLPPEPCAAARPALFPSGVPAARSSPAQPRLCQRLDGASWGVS
Protocol: as §1

[5] = test system: murine myotubes; assay: Murine myotubes subjected to high glucose: protein degradation, protein synthesis, ROS, pPKR; type: cell-based, mouse; settings: 10 or 25 mM glucose; ZAG 25 μg/ml
Protocol: This utilizes murine myotubes subjected to high concentrations of glucose (10 or 25 mM). […] However the SR compound (i.e., SR59230A) can also act as a β-agonist, which it seemed to do in these experiments.
It has been shown that formation of reactive oxygen species (ROS) is important in protein degradation induced by high glucose load. […] High glucose also induces activation (phosphorylation) of PKR (FIG. 22A) and the subsequent phosphorylation of eIF2α (FIG. 22B) as is seen in skeletal muscle of ob/ob mice, which was also attenuated by ZAG.

[6] = test system: ob/ob mice; assay: Oral (p.o.) administration of rhZAG to ob/ob mice; type: in vivo, mouse; settings: 50 ug ZAG p.o. daily with propranolol
Protocol: 50 ug per day of rhZAG was administered p.o. to Aston ob/ob mice. Oral dosing was achieved by assuming 5 mL/day consumption of water, and adding ZAG to achieve 50 ug per day dose based on that assumption. No attempt was made to correct for variations of consumption on a given day.
Experiment One (8 Day Oral ZAG Study): 50 ug of ZAG was administered p.o. daily in drinking water.
Experiment Two (8 Day Oral ZAG Plus Propranolol Study): 50 ug of ZAG administered p.o. daily, with and without propranolol. Propanolol blocks all of the effects of ZAG including decrease in body weight and blood glucose in the tolerance test, also blocking the rise in body temperature and the rise in plasma mouse ZAG, confirming that this occurs through a beta adrenergic receptor. […] It appears to do this by preventing the rise in mouse ZAG in the serum after oral administration of the rhZAG.
Experiment Three (Oral Study): ZAG administered p.o. daily over an extended time frame, with a recovery group split from the treated group beginning at 30 days (data not shown).

[7] = test system: ob/ob mice; assay: ob/ob mice treated with ZAG i.v. with or without propanolol; type: in vivo, mouse; settings: propanolol 40 mg kg−1 po daily
Protocol: Animals. […] Male mice (about 20 weeks of age) were grouped into three per cage and kept in an air conditioned room at 22±2° C., with ad libitum feeding of a rat and mouse breeding diet (Special Diet Services, Witham, UK) and tap water. Mice were administered ZAG (50 μg, i.v. in 100 μl PBS) or PBS daily with or without propanolol (40 mgkg^−1, po, daily) and body weight and food and water intake were determined, as well as urinary glucose excretion and body temperature, determined by the use of a rectal thermometer (RS Components, Northants, UK). A glucose tolerance test was performed on day 3. […] Blood samples were removed from the tail vein at 15, 30, 60 and 120 min after glucose administration and used for the measurements of glucose and insulin. At the end of the experiment the animals were terminated by cervical dislocation, tissues removed and rapidly frozen in liquid nitrogen, and maintained at −80° C.
To determine whether ZAG can increase insulin signalling the effect on Glut4 expression was determined.

[8] = target: T2, β3-AR; settings: high affinity binding site; cited from earlier work

With `COc1cccc(-c2cc(=O)c3ccccc3o2)c1N` [PD98059, reference compound] the “effect on ZAG-induced expression of phospho HSL” value [1] was “completely attenuated”.

In the case of `CCc1ccccc1OC[C@@H](O)CN[C@H]1CCCc2ccccc21` [SR59230A, reference compound], the “effect on the lipolytic effect of ZAG” value [2] is reported as “completely attenuated”, the “effect on isoprenaline-induced increase in cyclic AMP” value [3] is reported as “attenuated” and the “effect on isoprenaline-induced increase in cyclic AMP” value ([4]; SR59230A 10 μM) is reported as “attenuated”. For the same molecule, the “effect on protein degradation stimulated by high glucose” value [5] was “attenuated”.

With `CC(C)NCC(O)c1ccc(O)c(O)c1` (centres unmarked) [isoprenaline, reference compound] the “cyclic AMP level” value ([4]; 10 μM) was “significant increases in cyclic AMP level”.

With `CC(C)NCC(O)COc1cccc2ccccc12` (centres unmarked) [propanolol, propranolol] the “effect on weight loss by oral ZAG” value [6] was “totally attenuates weight loss”, the “effect on ZAG-induced changes in oral glucose tolerance test” value [7] was “blocked the reduction in peak plasma glucose levels” and the “effect on increased body temperature produced by ZAG” value [7] was “completely attenuated”. The “effect on decrease in body weight produced by ZAG” value ([7]; ZAG 50 μg iv daily) was “completely attenuated”.

B1: LMF: lipid mobilizing factor of cancer cachexia, shown immunologically identical to ZAG (protein, UniProt P25311 21-298, looked up)
Zinc-alpha-2-glycoprotein: QENQDGRYSLTYIYTGLSKHVEDVPAFQALGSLNDLQFFRYNSKDRKSQPMGLWRQVEGMEDWKQDSQLQKAREDIFMETLKDIVEYYNDSNGSHVLQGRFGCEIENNRSSGAFWKYYYDGKDYIEFNKEIPAWVPFDPAAQITKQKWEAEPVYVQRAKAYLEEECPATLRKYLKYSKNILDRQDPPSVVVTSHQAPGEKKKLKCLAYDFYPGKIDVHWTRAGEVQEPELRGDVLHNGNGTYQSWVVVAVPPQDTAPYSCHVQHSSLAQPLVVPWEAS
In the case of B1, the Kd [8] is given as 78 ± 4.5 nM.
